Several values for one entry are separate records, joined by “and”; a condition that tells them apart may be missing. Equal values may be shown once. Where a name gives a salt, the structure may show the parent alone.
Biological target: T1, human NK-2 receptor (Homo sapiens, UniProt P21452)
T1 construct: expressed in transfected cells; host or cells: CHO (Chinese hamster ovary) cells, membranes
T1 sequence (P21452 1-398): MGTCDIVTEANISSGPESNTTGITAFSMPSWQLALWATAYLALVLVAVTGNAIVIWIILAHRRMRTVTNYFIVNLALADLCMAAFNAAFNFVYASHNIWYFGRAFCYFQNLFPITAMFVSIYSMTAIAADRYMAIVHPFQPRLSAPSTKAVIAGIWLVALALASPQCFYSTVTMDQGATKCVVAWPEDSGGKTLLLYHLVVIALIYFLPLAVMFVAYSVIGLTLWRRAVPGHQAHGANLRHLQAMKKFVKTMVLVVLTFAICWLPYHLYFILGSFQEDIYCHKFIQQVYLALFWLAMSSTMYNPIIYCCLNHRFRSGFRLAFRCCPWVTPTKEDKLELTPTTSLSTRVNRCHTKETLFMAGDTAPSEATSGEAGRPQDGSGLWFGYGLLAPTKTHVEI
Experiment: binding test, affinity for the human NK-2 receptor, competition with [125I]NKA on transfected CHO cell membranes
Conditions: CHO cell membranes transfected with NK-2 receptor of human ileum; [125I]NKA 100 pM; 30 min, 20° C.
Protocol: The evaluation of the antagonist activity on NK-2 receptors has been assessed by binding and functional tests according to that already described in literature in relation to NK-2 antagonists.
The test substances have been tested within a concentration range from 0.01 nM to 10 nM. At the end of the incubation time (30 min, 20° C.) the samples have been filtered and radioactivity has been determined using a gamma-counter.

Row | Structure (SMILES) | Ki
1 | NC1(C(=O)N2CCC(CNC(=O)[C@@H](Cc3ccccc3)NC(=O)C3(NC(=O)c4ccc5cc(Br)ccc5c4)CCCC3)CC2)CCCCC1 [Example 97, 6-Bromo-naphthalene-2-carboxylic acid [1-(1(R)-{[1-(1-amino-cyclohexanecarbonyl)-piperidin-4-ylmethyl]-carbamoyl}-2-phenyl-ethylcarbamoyl)-cyclopentyl]-amide] | 0.02 nM
2 | O=C(NC1(C(=O)N[C@H](Cc2ccccc2)C(=O)NCCC2CCN(C(=O)[C@H]3CCCN3)CC2)CCCC1)c1ccc2cc(Br)ccc2c1 [Example 99, 6-Bromo-naphthalene-2-carboxylic acid [1-(2-phenyl-1(R)-{2-[1-(pyrrolidine-2(R)-carbonyl)-piperidin-4-yl]-ethylcarbamoyl}-ethylcarbamoyl)-cyclopentyl]-amide] | 0.316 nM
3 | O=C(NC1(C(=O)N[C@H](Cc2ccccc2)C(=O)NCCN2CCN(CC3CCOCC3)CC2)CCCC1)c1cc2ccccc2s1 [Example 101, Benzo[b]thiophene-2-carboxylic acid [1-(2-phenyl-1(R)-{2-[4-(tetrahydro-pyran-4-ylmethyl)-piperazin-1-yl]-ethylcarbamoyl}-ethylcarbamoyl)-cyclopentyl)-amide TFA salt] | 1.26 nM
4 | O=C(NC1(C(=O)N[C@H](Cc2ccccc2)C(=O)NCCCN2CCOCC2)CCCC1)c1cc2cc(Cl)ccc2o1 [Example 102, 5-Chloro-benzofuran-2-carboxylic acid {1-[1R-(3-morpholin-4-yl-propylcarbamoyl)-2-phenyl-ethylcarbamoyl]-cyclopentyl}-amide] | 0.501 nM
5 | O=C(NC1(C(=O)N[C@H](Cc2ccccc2)C(=O)NCCCN2CCOCC2)CCCC1)c1cc2cc(Br)ccc2o1 [Example 104, 5-Bromo-benzofuran-2-carboxylic acid {1-[1R-(3-morpholin-4-yl-propylcarbamoyl)2-phenyl-ethylcarbamoyl]-cyclopentyl}-amide] | 0.501 nM and 0.316 nM
6 | O=C(NC1(C(=O)N[C@H](Cc2ccccc2)C(=O)NCCCN2CCOCC2)CCCC1)c1cc2ccc(Br)cc2s1 [Example 108, 6-Bromo-benzo[b]thiophene-2-carboxylic acid {1-[1R-(3-morpholin-4-yl-propylcarbamoyl)-2-phenyl-ethylcarbamoyl]-cyclopentyl}-amide] | 0.0794 nM
7 | O=C(NC1(C(=O)N[C@H](Cc2ccccc2)C(=O)NCCCN2CCOCC2)CCCCC1)c1cc2ccc(Br)cc2s1 [Example 109, 6-Bromo-benzo[b]thiophene-2-carboxylic acid {1-[1R-(3-morpholin-4-yl-propylcarbamoyl)-2-phenyl-ethylcarbamoyl]-cyclohexyl}-amide] | 0.1 nM
8 | Cn1c(C(=O)NC2(C(=O)N[C@H](Cc3ccccc3)C(=O)NCCCN3CCOCC3)CCCC2)cc2ccc(Cl)cc21 [Example 111, 6-Chloro-1-methyl-1H-indole-2-carboxylic acid {1-[1R-(3-morpholin-4-yl-propylcarbamoyl)-2-phenyl-ethylcarbamoyl]-cyclopentyl}-amide] | 0.2 nM
9 | Cc1ccc2c(c1)cc(C(=O)NC1(C(=O)N[C@H](Cc3ccccc3)C(=O)NCCCN3CCOCC3)CCCC1)n2C [Example 114, 1,5-Dimethyl-1H-indole-2-carboxylic acid {1-[1R-(3-morpholinyl-propylcarbamoyl)-2-phenyl-ethylcarbamoyl]-cyclopentyl}-amide] | 1.58 nM
10 | Nc1ccc2cc(C(=O)NC3(C(=O)N[C@H](Cc4ccccc4)C(=O)NCCCN4CCOCC4)CCCC3)sc2c1 [Example 115, 6-Amino-benzo[b]thiophene-2-carboxylic acid {1-[1R-(3-morpholin-4-yl-propylcarbamoyl)-2-phenyl-ethylcarbamoyl]-cyclopentyl]-amide] | 3.16 nM
11 | O=C(NC1(C(=O)N[C@H](Cc2ccccc2)C(=O)NCCCN2CCOCC2)CCCC1)c1cc2ccc(Cl)c(Cl)c2s1 [Example 116, 6,7-Dichloro-benzo[b]thiophene-2-carboxylic acid {1-[1R-(3-morpholin-4-yl-propylcarbamoyl)-2-phenyl-ethylcarbamoyl]-cyclopentyl}-amide] | 0.316 nM
12 | O=C(NC1(C(=O)N[C@H](Cc2ccccc2)C(=O)NCC2CCN(CC3CCOCC3)CC2)CCCC1)c1ccc2cc(I)ccc2c1 [Example 117, 6-Iodo-naphthalene-2-carboxylic acid (1-(2-phenyl-1R-{[1-(tetrahydro-pyran-4-ylmethyl)-piperidin-4-ylmethyl]-carbamoyl}-ethylcarbamoyl)-cyclopentyl]-amide] | 0.0501 nM
13 | COc1ccc2cc(C(=O)NC3(C(=O)N[C@H](Cc4ccccc4)C(=O)NCC4CCN(CC5CCOCC5)CC4)CCCC3)ccc2c1 [Example 118, 6-Methoxy-naphthalene-2-carboxylic acid [1-(2-phenyl-1R-{[1-(tetrahydro-pyran-4-ylmethyl)-piperidin-4-ylmethyl]-carbamoyl}-ethylcarbamoyl)-cyclopentyl]-amide] | 0.316 nM
14 | O=C(NC1(C(=O)N[C@H](Cc2ccccc2)C(=O)NCC2CCN(CC3CCOCC3)CC2)CCCC1)c1cc2ccc(Br)cc2o1 [Example 119, 6-Bromo-benzofuran-2-carboxylic acid [1-(2-phenyl-1R-{[1-(tetrahydro-pyran-4-ylmethyl)-piperidin-4-ylmethyl]-carbamoyl}-ethylcarbamoyl)cyclopentyl]-amide] | 0.251 nM
15 | O=C(NC1(C(=O)N[C@H](Cc2ccccc2)C(=O)NCC2CCN(CC3CCOCC3)CC2)CCCC1)c1cc2ccc(Cl)cc2o1 [Example 120] | 0.316 nM
16 | O=C(NC1(C(=O)N[C@H](Cc2ccccc2)C(=O)NCC2CCN(CC3CCOCC3)CC2)CCCC1)c1cc2cc(F)ccc2o1 [Example 121, 5-Fluoro-benzofuran-2-carboxylic acid [1-(2-phenyl-1R-{[1-(tetrahydro-pyran-4-ylmethyl)-piperidin-4-ylmethyl]-carbamoyl}-ethylcarbamoyl)-cyclopentyl]-amide] | 0.501 nM
17 | O=C(NC1(C(=O)N[C@H](Cc2ccccc2)C(=O)NCC2CCN(CC3CCOCC3)CC2)CCCC1)c1cc2cc(Cl)ccc2o1 [Example 122, 5-Chloro-benzofuran-2-carboxylic acid [1-(2-phenyl-1R-{[1-(tetrahydro-pyran-4 ylmethyl)-piperidin-4-ylmethyl]-carbamoyl}-ethylcarbamoyl)cyclopentyl]-amide] | 0.1 nM
18 | O=C(NC1(C(=O)N[C@H](Cc2ccccc2)C(=O)NCC2CCN(CC3CCOCC3)CC2)CCCC1)c1cc2cc(Br)ccc2o1 [Example 123, 5-Bromo-benzofuran-2-carboxylic acid [1-(2-phenyl-1R-{[1-(tetrahydro-pyran-4-ylmethyl)-piperidin-4-ylmethyl]-carbamoyl}-ethylcarbamoyl)cyclopentyl]-amide] | 0.1 nM
19 | CC(C)(C)c1cccc2cc(C(=O)NC3(C(=O)N[C@H](Cc4ccccc4)C(=O)NCC4CCN(CC5CCOCC5)CC4)CCCC3)oc12 [Example 124, 7-tert-Butyl-benzofuran-2-carboxylic acid [1-(2-phenyl-1R-{[1-(tetrahydro-pyran-4 ylmethyl)-piperidin-4-ylmethyl]-carbamoyl}-ethylcarbamoyl)-cyclopentyl]-amide] | 0.1 nM
20 | Cc1ccc2cc(C(=O)NC3(C(=O)N[C@H](Cc4ccccc4)C(=O)NCC4CCN(CC5CCOCC5)CC4)CCCC3)oc2c1 [Example 125, 6-Methyl-benzofuran-2-carboxylic acid [1-(2-phenyl-1R-{[1-(tetrahydro-pyran-4-ylmethyl)-piperidin-4-ylmethyl]-carbamoyl}-ethylcarbamoyl)-cyclopentyl]-amide] | 0.251 nM
21 | Cc1ccc2oc(C(=O)NC3(C(=O)N[C@H](Cc4ccccc4)C(=O)NCC4CCN(CC5CCOCC5)CC4)CCCC3)cc2c1 [Example 126, 5-Methyl-benzofuran-2-carboxylic acid [1-(2-phenyl-1R-([1-(tetrahydro-pyran-4-ylmethyl)-piperidin-4-ylmethyl]-carbamoyl}-ethylcarbamoyl)-cyclopentyl]-amide] | 0.158 nM
22 | O=C(NC1(C(=O)N[C@H](Cc2ccccc2)C(=O)NCC2CCN(CC3CCOCC3)CC2)CCCC1)c1cc2cc(I)ccc2o1 [Example 127, 5-Iodo-benzofuran-2-carboxylic acid [1-(2-phenyl-1R-{[1-(tetrahydro-pyran-4-ylmethyl)-piperidin-4-ylmethyl]-carbamoyl}-ethylcarbamoyl)-cyclopentyl]-amide] | 0.0794 nM
23 | CC(C)(C)c1ccc2oc(C(=O)NC3(C(=O)N[C@H](Cc4ccccc4)C(=O)NCC4CCN(CC5CCOCC5)CC4)CCCC3)cc2c1 [Example 128, 5-tert-Butyl-benzofuran-2-carboxylic acid [1-(2-phenyl-1R-{[1-(tetrahydro-pyran-4-ylmethyl)-piperidin-4-ylmethyl]-carbamoyl}-ethylcarbamoyl)-cyclopentyl]-amide] | 0.126 nM
24 | O=C(NC1(C(=O)N[C@H](Cc2ccccc2)C(=O)NCC2CCN(CC3CCOCC3)CC2)CCCC1)c1cc2ccc(I)cc2s1 [Example 129, 6-Iodo-benzo[b]thiophene-2-carboxylic acid [1-(2-phenyl-1R-{[1-(tetrahydro-pyran-4-ylmethyl)-piperidin-4-ylmethyl]-carbamoyl}-ethylcarbamoyl)-cyclopentyl]-amide] | 0.0501 nM

— US7273856B2, “Linear basic compounds having NK-2 antagonist activity and formulations thereof” (Menarini Ricerche S.P.A., priority 2001, dated 2007)
